Measurements as given in patent US9447100B2, “Substituted pyrazolo[1,5-A] pyrimidines as calcium receptor modulating agents” (Takeda Pharmaceutical Company Limited, priority 2002, dated 2016).
Counter-ions that a name gives are not always drawn.

melting point [°C] | Structure (SMILES)
185 to 186 | CCC(CC)(NC(=O)c1cnn2c1NC(c1ccccc1)CC2(C)C)c1ccc(-c2ccoc2)cc1 (stereo not drawn) [Example 585, N-(1-ethyl-1-(4-(3-furyl)phenyl)propyl)-7,7-dimethyl-5-phenyl-4,5,6,7-tetrahydropyrazolo[1,5-a]pyrimidine-3-carboxamide]
230 to 231 | O=C(NC12CC3CC(CC(C3)C1)C2)c1cnn2c1NC(c1ccco1)CC2C(F)(F)F (stereo not drawn) [Example 270, N-(1-adamantyl)-5-(2-furyl)-7-(trifluoromethyl)-4,5,6,7-tetrahydropyrazolo[1,5-a]pyrimidine-3-carboxamide]
186 to 187 | O=C(O)c1cnn2c1NC(c1ccc(Cl)cc1)CC2C(F)(F)F (stereo not drawn) [Example 26, 5-(4-chlorophenyl)-7-(trifluoromethyl)-4,5,6,7-tetrahydropyrazolo[1,5-a]pyrimidine-3-carboxylic acid]
190 to 192 | Cc1nn2c(c1C(=O)O)NC(c1ccccc1)CC2(C)C (single isomer, unassigned; (+)) [Example 1020, (+)-2,7,7-trimethyl-5-phenyl-4,5,6,7-tetrahydropyrazolo[1,5-a]pyrimidine-3-carboxylic acid]
168 to 169 | CCC(CC)(NC(=O)c1cnn2c1NC(c1ccccc1)CC2(C)C)c1ccc(-c2cccnc2)cc1 (stereo not drawn) (as salt: HCl) [Example 583, N-(1-ethyl-1-(4-(3-pyridinyl)phenyl)propyl)-7,7-dimethyl-5-phenyl-4,5,6,7-tetrahydropyrazolo[1,5-a]pyrimidine-3-carboxamide]
153 to 155 | Cc1nn2c(c1C(=O)O)NC(c1cccc(F)c1)CC2(C)C (stereo not drawn) [Example 945, 5-(3-fluorophenyl)-2,7,7-trimethyl-4,5,6,7-tetrahydropyrazolo[1,5-a]pyrimidine-3-carboxylic acid]
183 to 184 | CCc1nn2c(c1C(=O)NC(CC)(CC)c1ccc(Cl)cc1)NC(c1ccccc1)CC2(C)C (stereo not drawn) [Example 758, N-(1-(4-chlorophenyl)-1-ethylpropyl)-2-ethyl-7,7-dimethyl-5-phenyl-4,5,6,7-tetrahydropyrazolo[1,5-a]pyrimidine-3-carboxamide]
104 to 105 | CCC1(NC(=O)c2cnn3c2NC(c2ccccc2)CC3(C)C)CCOCC1 (stereo not drawn) [Example 582, N-(4-ethyltetrahydro-2H-pyran-4-yl)-7,7-dimethyl-5-phenyl-4,5,6,7-tetrahydropyrazolo[1,5-a]pyrimidine-3-carboxamide]
187 to 188 | CC1(C)CC(c2ccccc2)Nc2c(C(=O)NC(C3CCCCC3)C3CCCCC3)cnn21 (stereo not drawn) [Example 433, N-(dicyclohexylmethyl)-7,7-dimethyl-5-phenyl-4,5,6,7-tetrahydropyrazolo[1,5-a]pyrimidine-3-carboxamide]
128 to 130 | CCC(CC)(NC(=O)c1cnn2c1NC(c1ccccc1Cl)CC2(C)C)c1ccc(C)cc1 (stereo not drawn) (as salt: HCl) [Example 961, 5-(2-chlorophenyl)-N-[1-ethyl-1-(4-methylphenyl)propyl]-7,7-dimethyl-4,5,6,7-tetrahydropyrazolo[1,5-a]pyrimidine-3-carboxamide]
163.5 to 163.6 | CCC(CC)(NC(=O)c1cnn2c1NC(c1ncc(C)s1)CC2(C)C)c1ccc(F)cc1 (stereo not drawn) [Example 602, N-(1-ethyl-1-(4-fluorophenyl)propyl)-7,7-dimethyl-5-(5-methyl-1,3-thiazol-2-yl)-4,5,6,7-tetrahydropyrazolo[1,5-a]pyrimidine-3-carboxamide]
168 to 169 | CCC(CC)(NC(=O)c1c(C)nn2c1N[C@@H](c1ccccc1)CC2(C)C)c1ccc(CO)cc1 (as salt: HCl) [Example 1075, (5R)-N-(1-ethyl-1-(4-(hydroxymethyl)phenyl)propyl)-2,7,7-trimethyl-5-phenyl-4,5,6,7-tetrahydropyrazolo[1,5-a]pyrimidine-3-carboxamide]
154 to 155 | O=C(CNC(=O)c1cnn2c1N[C@H](c1ccccc1)C[C@@H]2C(F)(F)F)c1ccccc1Cl (stereo in doubt) [Example 289, N-(2-(2-chlorophenyl)-2-oxoethyl)-5-phenyl-7-(trifluoromethyl)-4,5,6,7-tetrahydropyrazolo[1,5-a]pyrimidine-3-carboxamide]

Further lines, the compound ahead of its results:

Structure (SMILES) | melting point [°C]
CCC(CC)(NC(=O)c1cnn2c1NC(c1ccccc1)CC21CCCC1)c1ccc(C(F)(F)F)cc1 (stereo not drawn) [Example 191, N-(1-ethyl-1-(4-(trifluoromethyl)phenyl)propyl)-5′-phenyl-5′,6′-dihydro-4′H-spiro[cyclopentane-1,7′-pyrazolo[1,5-a]pyrimidine]-3′-carboxamide] | 205 to 207
CCC(CC)(NC(=O)c1cnn2c1NC(c1ccccc1)CC2(C)C)c1ccc(C(=O)OC(C)C)cc1 (stereo not drawn) [Example 733, isopropyl 4-(1-(((7,7-dimethyl-5-phenyl-4,5,6,7-tetrahydropyrazolo[1,5-a]pyrimidin-3-yl)carbonyl)amino)-1-ethylpropyl)benzoate] | 205 to 206
CC(C)(NC(=O)c1cnn2c1NC(c1ccccc1)CC2(C)C)c1ccc(Cl)cc1 (stereo not drawn) (as salt: HCl) [Example 791, N-(1-(4-chlorophenyl)-1-methylethyl)-7,7-dimethyl-5-phenyl-4,5,6,7-tetrahydropyrazolo[1,5-a]pyrimidine-3-carboxamide] | 207 to 208
CCOC(=O)CCCCOc1ccc(C(CC)(CC)NC(=O)c2cnn3c2NC(c2ccccc2)CC3(C)C)cc1 (stereo not drawn) [Example 817, ethyl 5-(4-(1-(((7,7-dimethyl-5-phenyl-4,5,6,7-tetrahydropyrazolo[1,5-a]pyrimidin-3-yl)carbonyl)amino)-1-ethyl-propyl)phenoxy)pentanoate] | 120 to 121
CCCOC(=O)c1ccc(C(CC)(CC)NC(=O)c2cnn3c2NC(c2ccccc2)CC3(C)C)cc1 (stereo not drawn) [Example 762, propyl 4-(1-(((7,7-dimethyl-5-phenyl-4,5,6,7-tetrahydropyrazolo[1,5-a]pyrimidin-3-yl)carbonyl)amino)-1-ethylpropyl)benzoate] | 162 to 163
C=Cc1ccc(C(CC)(CC)NC(=O)c2cnn3c2NC(c2ccccc2)CC3(C)C)cc1 (stereo not drawn) [Example 645, N-(1-ethyl-1-(4-vinylphenyl)propyl)-7,7-dimethyl-5-phenyl-4,5,6,7-tetrahydropyrazolo[1,5-a]pyrimidine-3-carboxamide] | 155 to 156
CCC(CC)(CCSC)NC(=O)c1cnn2c1NC(c1ccccc1)CC2(C)C (stereo not drawn) [Example 665, N-(1,1-diethyl-3-(methylthio)propyl)-7,7-dimethyl-5-phenyl-4,5,6,7-tetrahydropyrazolo[1,5-a]pyrimidine-3-carboxamide] | 154 to 155
CCC(CC)(NC(=O)c1cnn2c1NC(c1ccccc1)CC2(C)C)c1ccc(F)c(F)c1 (stereo not drawn) [Example 589, N-(1-(3,4-difluorophenyl)-1-ethylpropyl)-7,7-dimethyl-5-phenyl-4,5,6,7-tetrahydropyrazolo[1,5-a]pyrimidine-3-carboxamide] | 171 to 172
CCC1(NC(=O)c2cnn3c2NC(c2ccccc2)CC3(C)C)CCCCCC1 (stereo not drawn) [Example 622, N-(1-ethylcycloheptyl)-7,7-dimethyl-5-phenyl-4,5,6,7-tetrahydropyrazolo[1,5-a]pyrimidine-3-carboxamide] | 129 to 130
CCC(CC)(CC)NC(=O)c1cnn2c1NC(c1ccccc1)CC2(C)C (stereo not drawn) [Example 616, N-(1,1-diethylpropyl)-7,7-dimethyl-5-phenyl-4,5,6,7-tetrahydropyrazolo[1,5-a]pyrimidine-3-carboxamide] | 93 to 94
CCC(CC)(NC(=O)c1cnn2c1NC(c1ccccc1)CC21CCCCC1)c1ccc(C(F)(F)F)cc1 (stereo not drawn) [Example 200, N-(1-ethyl-1-(4-(trifluoromethyl)phenyl)propyl)-5′-phenyl-5′,6′-dihydro-4′H-spiro[cyclohexane-1,7′-pyrazolo[1,5-a]pyrimidine]-3′-carboxamide] | 274 to 275
CCC1(CC)C[C@@H](O)CN1C(=O)c1c(C)nn2c1N[C@@H](c1ccccc1)CC2(C)C [Example 1097, (3R)-5,5-diethyl-1-(((5R)-2,7,7-trimethyl-5-phenyl-4,5,6,7-tetrahydropyrazolo[1,5-a]pyrimidin-3-yl)carbonyl)-3-pyrrolidinol] | 162 to 164
CCC(CC)(NC(=O)c1c(C)nn2c1NC(c1ccccc1)CC2(C)C)c1ccc(Cl)cc1 (stereo not drawn) [Example 696, N-(1-(4-chlorophenyl)-1-ethylpropyl)-2,7,7-trimethyl-5-phenyl-4,5,6,7-tetrahydropyrazolo[1,5-a]pyrimidine-3-carboxamide] | 146 to 148
CCC1(CC)C[C@@H](OCc2ccccc2)CN1C(=O)c1cnn2c1N[C@@H](c1ccccc1)CC2(C)C [Example 1103, (5R)-3-(((4R)-4-(benzyloxy)-2,2-diethyl-1-pyrrolidinyl)carbonyl)-7,7-dimethyl-5-phenyl-4,5,6,7-tetrahydropyrazolo[1,5-a]pyrimidine] | 118 to 120
CC(C)(CC1Cc2ccccc2C1)NC(=O)c1cnn2c1NC(c1ccccc1)CC2C(F)(F)F (stereo not drawn) [Example 292, N-(2-(2,3-dihydro-1H-inden-2-yl)-1,1-dimethylethyl)-5-phenyl-7-(trifluoromethyl)-4,5,6,7-tetrahydropyrazolo[1,5-a]pyrimidine-3-carboxamide] | 221 to 222
CCC(CC)(NC(=O)c1c(C)nn2c1NC(c1ccccc1OC)CC2(C)C)c1ccc(C)cc1 (stereo not drawn) (as salt: HCl) [Example 965, N-(1-ethyl-1-(4-methylphenyl)propyl)-5-(2-methoxyphenyl)-2,7,7-trimethyl-4,5,6,7-tetrahydropyrazolo[1,5-a]pyrimidine-3-carboxamide] | 162 to 163
CCC(CC)(NC(=O)c1cnn2c1NC(c1ccco1)CC2(C)C)c1ccc(C(F)(F)F)cc1 (stereo not drawn) [Example 693, N-(1-ethyl-1-(4-(trifluoro-methyl)phenyl)propyl)-5-(2-furyl)-7,7-dimethyl-4,5,6,7-tetrahydropyrazolo[1,5-a]pyrimidine-3-carboxamide] | 212 to 214
